Here are results for 49 substances from the OligoGym collection.

Oligonucleotides are written 5' to 3', each unit as a sugar letter and its base; * is a phosphorothioate linkage, no mark a phosphodiester; rarer units and linkages stand in square brackets, end groups in braces. Plain capitals give the bases only. d = 2'-deoxy (DNA); r = 2'-OH (RNA)

The data set deals with UBE2H. Briefly: reporter assay of Huesken 2005. The conditions noted are these: siRNA. In general terms: In a reporter assay the amount or activity of a reporter protein is the signal.
Note: test concentration or dose not given here.

Consider “sense rCrGrCrCrArCrGrGrArGrGrArGrGrCrGrCrUrGdTdT / antisense rCrArGrCrGrCrCrUrCrCrUrCrCrGrUrGrGrCrGdTdA”, for which the normalised inhibition (eCFP-eYFP dual reporter) turned out to be 66.8%.

For the substance “sense rCrGrArGrArGrUrArArArCrArUrGrArGrGrUrUdTdT / antisense rArArCrCrUrCrArUrGrUrUrUrArCrUrCrUrCrGdAdT”, the normalised inhibition (eCFP-eYFP dual reporter) is 98%.

As to “sense rCrUrUrGrGrArCrArGrCrUrCrUrCrUrArUrGrAdTdT / antisense rUrCrArUrArGrArGrArGrCrUrGrUrCrCrArArGdTdT”, the normalised inhibition (eCFP-eYFP dual reporter) is 81%.

With “sense rGrArUrCrUrUrArCrCrArArUrArUrArUrUrUrGdTdT / antisense rCrArArArUrArUrArUrUrGrGrUrArArGrArUrCdAdT”, the normalised inhibition (eCFP-eYFP dual reporter) was determined as 78.3%.

With “sense rUrArUrArGrGrArUrUrCrArUrGrArArUrArArAdTdT / antisense rUrUrUrArUrUrCrArUrGrArArUrCrCrUrArUrAdGdA”, the normalised inhibition (eCFP-eYFP dual reporter) was 67.9%.

For “sense rArGrUrGrGrArCrCrUrArCrCrUrGrArUrArArAdTdT / antisense rUrUrUrArUrCrArGrGrUrArGrGrUrCrCrArCrUdCdT”, the normalised inhibition (eCFP-eYFP dual reporter) is 108%.

Turning to “sense rCrUrArUrGrArUrCrUrUrArCrCrArArUrArUrAdTdT / antisense rUrArUrArUrUrGrGrUrArArGrArUrCrArUrArGdAdG”, the normalised inhibition (eCFP-eYFP dual reporter) came to 110%.

As for “sense rCrArGrArArGrArArUrArCrArArGrCrArGrArAdTdT / antisense rUrUrCrUrGrCrUrUrGrUrArUrUrCrUrUrCrUrGdGdT”, the normalised inhibition (eCFP-eYFP dual reporter) came to 77.7%.

“sense rCrArUrCrGrArGrArGrUrArArArCrArUrGrArGdTdT / antisense rCrUrCrArUrGrUrUrUrArCrUrCrUrCrGrArUrGdAdG”: the normalised inhibition (eCFP-eYFP dual reporter) is 70.2%.

“sense rUrGrArUrCrUrUrArCrCrArArUrArUrArUrUrUdTdT / antisense rArArArUrArUrArUrUrGrGrUrArArGrArUrCrAdTdA”: the normalised inhibition (eCFP-eYFP dual reporter) is 68.4%.

For “sense rArUrGrGrArCrCrArCrArArGrGrArArCrArCrCdTdT / antisense rGrGrUrGrUrUrCrCrUrUrGrUrGrGrUrCrCrArUdAdA”, the normalised inhibition (eCFP-eYFP dual reporter) is 34%.

Regarding “sense rArCrGrCrCrArCrGrGrArGrGrArGrGrCrGrCrUdTdT / antisense rArGrCrGrCrCrUrCrCrUrCrCrGrUrGrGrCrGrUdAdT”, the normalised inhibition (eCFP-eYFP dual reporter) stood at 71.9%.

As to “sense rUrArUrCrCrUrArArCrCrCrCrArUrArGrArUrCdTdT / antisense rGrArUrCrUrArUrGrGrGrGrUrUrArGrGrArUrAdGdG”, the normalised inhibition (eCFP-eYFP dual reporter) amounted to 50.2%.

For the substance “sense rArArUrArUrArUrUrUrGrArGrUrCrCrUrUrCrCdTdT / antisense rGrGrArArGrGrArCrUrCrArArArUrArUrArUrUdGdG”, the normalised inhibition (eCFP-eYFP dual reporter) was 41.6%.

Regarding “sense rGrArGrUrArUrGrGrArArArGrUrUrArGrArGrUdTdT / antisense rArCrUrCrUrArArCrUrUrUrCrCrArUrArCrUrCdCdG”, the normalised inhibition (eCFP-eYFP dual reporter) worked out at 83.6%.

As for “sense rGrUrCrUrArGrArUrGrUrArArUrUrArArUrCrAdTdT / antisense rUrGrArUrUrArArUrUrArCrArUrCrUrArGrArCdAdC”, the normalised inhibition (eCFP-eYFP dual reporter) is 106%.

For the substance “sense rArArCrCrCrCrArUrArGrArUrCrCrUrCrUrCrAdTdT / antisense rUrGrArGrArGrGrArUrCrUrArUrGrGrGrGrUrUdAdG”, the normalised inhibition (eCFP-eYFP dual reporter) is 49.4%.

Take “sense rUrCrArUrCrGrArGrArGrUrArArArCrArUrGrAdTdT / antisense rUrCrArUrGrUrUrUrArCrUrCrUrCrGrArUrGrAdGdC”: the normalised inhibition (eCFP-eYFP dual reporter) came out at 71.5%.

Consider “sense rGrArArGrArArUrArCrArArGrCrArGrArArArAdTdT / antisense rUrUrUrUrCrUrGrCrUrUrGrUrArUrUrCrUrUrCdTdG”, for which the normalised inhibition (eCFP-eYFP dual reporter) came to 95.1%.

With “sense rArArArArUrUrArArArGrArGrUrArCrArUrCrCdTdT / antisense rGrGrArUrGrUrArCrUrCrUrUrUrArArUrUrUrUdCdT”, the normalised inhibition (eCFP-eYFP dual reporter) was 70.5%.

Turning to “sense rArGrGrGrUrArCrCrGrGrGrGrArCrArGrCrUrCdTdT / antisense rGrArGrCrUrGrUrCrCrCrCrGrGrUrArCrCrCrUdCdT”, the normalised inhibition (eCFP-eYFP dual reporter) worked out at 77.2%.

On to “sense rCrCrArCrCrGrArCrCrArGrArArGrArArUrArCdTdT / antisense rGrUrArUrUrCrUrUrCrUrGrGrUrCrGrGrUrGrGdAdG”, for which the normalised inhibition (eCFP-eYFP dual reporter) stood at 82.5%.

Take “sense rArArCrArCrCrArUrArUrGrArArGrGrCrGrGrAdTdT / antisense rUrCrCrGrCrCrUrUrCrArUrArUrGrGrUrGrUrUdCdC”: the normalised inhibition (eCFP-eYFP dual reporter) was 67.8%.

Regarding “sense rUrUrArUrGrGrArCrCrArCrArArGrGrArArCrAdTdT / antisense rUrGrUrUrCrCrUrUrGrUrGrGrUrCrCrArUrArAdAdA”, the normalised inhibition (eCFP-eYFP dual reporter) was determined as 91.7%.

“sense rGrGrGrUrArCrCrGrGrGrGrArCrArGrCrUrCrAdTdT / antisense rUrGrArGrCrUrGrUrCrCrCrCrGrGrUrArCrCrCdTdC”: the normalised inhibition (eCFP-eYFP dual reporter) was 71.9%.

With “sense rCrArArGrGrArArCrArCrCrArUrArUrGrArArGdTdT / antisense rCrUrUrCrArUrArUrGrGrUrGrUrUrCrCrUrUrGdTdG”, the normalised inhibition (eCFP-eYFP dual reporter) came to 99.5%.

Turning to “sense rCrCrGrArCrCrArGrArArGrArArUrArCrArArGdTdT / antisense rCrUrUrGrUrArUrUrCrUrUrCrUrGrGrUrCrGrGdTdG”, the normalised inhibition (eCFP-eYFP dual reporter) amounted to 86.4%.

As for “sense rCrCrUrArArCrCrCrCrArUrArGrArUrCrCrUrCdTdT / antisense rGrArGrGrArUrCrUrArUrGrGrGrGrUrUrArGrGdAdT”, the normalised inhibition (eCFP-eYFP dual reporter) is 66.9%.

As to “sense rGrArGrUrArCrArUrCrCrArGrArArArUrArCrGdTdT / antisense rCrGrUrArUrUrUrCrUrGrGrArUrGrUrArCrUrCdTdT”, the normalised inhibition (eCFP-eYFP dual reporter) was 77.6%.

As for “sense rGrGrArGrGrArGrGrCrGrCrUrGrArArArGrArAdTdT / antisense rUrUrCrUrUrUrCrArGrCrGrCrCrUrCrCrUrCrCdGdT”, the normalised inhibition (eCFP-eYFP dual reporter) was 91.9%.

Turning to “sense rUrCrArGrUrUrArUrUrGrGrCrCrUrArUrCrCrUdTdT / antisense rArGrGrArUrArGrGrCrCrArArUrArArCrUrGrAdGdG”, the normalised inhibition (eCFP-eYFP dual reporter) is 66.6%.

“sense rArArArUrCrUrCrCrArUrCrUrArUrArGrGrArUdTdT / antisense rArUrCrCrUrArUrArGrArUrGrGrArGrArUrUrUdGdA”: the normalised inhibition (eCFP-eYFP dual reporter) came out at 96.4%.

Consider “sense rCrGrUrCrArGrGrArArCrUrGrUrGrUrGrUrCrUdTdT / antisense rArGrArCrArCrArCrArGrUrUrCrCrUrGrArCrGdCdT”, for which the normalised inhibition (eCFP-eYFP dual reporter) was found to be 99.9%.

Turning to “sense rArUrGrGrUrGrArCrGrCrUrGrCrArGrCrCrArUdTdT / antisense rArUrGrGrCrUrGrCrArGrCrGrUrCrArCrCrArUdTdG”, the normalised inhibition (eCFP-eYFP dual reporter) is 86.6%.

On to “sense rGrArUrArArArUrArCrCrCrUrUrUrCrArArArUdTdT / antisense rArUrUrUrGrArArArGrGrGrUrArUrUrUrArUrCdAdG”, for which the normalised inhibition (eCFP-eYFP dual reporter) amounted to 102%.

With “sense rArCrUrUrGrGrArCrArGrCrUrCrUrCrUrArUrGdTdT / antisense rCrArUrArGrArGrArGrCrUrGrUrCrCrArArGrUdTdT”, the normalised inhibition (eCFP-eYFP dual reporter) was found to be 86%.

Consider “sense rGrGrCrGrCrUrGrArArArGrArArCrArGrGrArAdTdT / antisense rUrUrCrCrUrGrUrUrCrUrUrUrCrArGrCrGrCrCdTdC”, for which the normalised inhibition (eCFP-eYFP dual reporter) worked out at 98.5%.

Regarding “sense rArArGrUrUrArGrArGrUrGrGrArCrCrUrArCrCdTdT / antisense rGrGrUrArGrGrUrCrCrArCrUrCrUrArArCrUrUdTdC”, the normalised inhibition (eCFP-eYFP dual reporter) amounted to 64.2%.

In the case of “sense rArUrUrGrGrCrCrUrArUrCrCrUrArArCrCrCrCdTdT / antisense rGrGrGrGrUrUrArGrGrArUrArGrGrCrCrArArUdAdA”, the normalised inhibition (eCFP-eYFP dual reporter) came out at 36.2%.

As for “sense rUrArGrArUrGrUrArArUrUrArArUrCrArArArCdTdT / antisense rGrUrUrUrGrArUrUrArArUrUrArCrArUrCrUrAdGdA”, the normalised inhibition (eCFP-eYFP dual reporter) came to 46.5%.

With “sense rGrArArUrUrUrGrUrArGrUrGrArArGrUrUrUrUdTdT / antisense rArArArArCrUrUrCrArCrUrArCrArArArUrUrCdAdT”, the normalised inhibition (eCFP-eYFP dual reporter) came out at 96.7%.

As for “sense rArUrCrUrArUrArGrGrArUrUrCrArUrGrArArUdTdT / antisense rArUrUrCrArUrGrArArUrCrCrUrArUrArGrArUdGdG”, the normalised inhibition (eCFP-eYFP dual reporter) was found to be 95.3%.

“sense rCrArGrCrCrArUrGrUrArCrCrUrCrCrArCrCrGdTdT / antisense rCrGrGrUrGrGrArGrGrUrArCrArUrGrGrCrUrGdCdA”: the normalised inhibition (eCFP-eYFP dual reporter) was found to be 61.4%.

Take “sense rCrCrArGrArArGrArArUrArCrArArGrCrArGrAdTdT / antisense rUrCrUrGrCrUrUrGrUrArUrUrCrUrUrCrUrGrGdTdC”: the normalised inhibition (eCFP-eYFP dual reporter) stood at 104%.

Regarding “sense rArCrArGrCrUrCrUrCrUrArUrGrArUrCrUrUrAdTdT / antisense rUrArArGrArUrCrArUrArGrArGrArGrCrUrGrUdCdC”, the normalised inhibition (eCFP-eYFP dual reporter) is 95.8%.

As for “sense rArUrCrGrArGrArGrUrArArArCrArUrGrArGrGdTdT / antisense rCrCrUrCrArUrGrUrUrUrArCrUrCrUrCrGrArUdGdA”, the normalised inhibition (eCFP-eYFP dual reporter) turned out to be 71.1%.

On to “sense rGrUrGrArArGrUrUrUrUrArUrGrGrArCrCrArCdTdT / antisense rGrUrGrGrUrCrCrArUrArArArArCrUrUrCrArCdTdA”, for which the normalised inhibition (eCFP-eYFP dual reporter) amounted to 63.8%.

Consider “sense rGrArGrGrUrUrArCrGrArUrCrCrUrGrGrGrArGdTdT / antisense rCrUrCrCrCrArGrGrArUrCrGrUrArArCrCrUrCdAdT”, for which the normalised inhibition (eCFP-eYFP dual reporter) came out at 57.3%.

For the substance “sense rCrCrArUrArUrGrArArGrGrCrGrGrArGrUrArUdTdT / antisense rArUrArCrUrCrCrGrCrCrUrUrCrArUrArUrGrGdTdG”, the normalised inhibition (eCFP-eYFP dual reporter) is 102%.
